In patent US7196110B2, “N-substituted tricyclic 3-aminopyrazoles as inhibitors for the treatment of cell proliferative disorders” (Janssen Phamaceutica N.V., priority 2002, dated 2007):
Where two headings read alike, the source gives them in different places.

Target: T1, PDGF-receptor beta enzyme comprising the tyrosine kinase domain (Homo sapiens, UniProt P09619)
T1 construct: from amino acid 545 to 1106 of GenBank Access NO: AAA36427
Assay: Inhibition of PDGF-receptor kinase activity (cell-free, PLC1 peptide, 33P Flashplate)
Type: biochemical
Settings: for inhibition at 10 µM / Percent Inhibition @ 10 uM: compound at 10 uM; for inhibition at 10 µM: read-out: Percent Inhibition @ 10 uM
Procedure, shortened: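 Recombinant kinase domain (aa 545–1106) phosphorylated a biotinylated PLC1 peptide with 5 μM ATP plus 33P-γ-ATP, in Tris pH 8, MgCl2, Na3VO4 and 1 mM DTT, for 60 min at 30 °C. Retained 33P was counted after washing. IC50 is the concentration halving activity versus no-inhibitor reactions.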

[1] = PDGF-R kinase activity, read-out: IC50
[2] = read-out: IC50 (μM) on PDGF-R kinase activity

T1 sequence (P09619 545-1106): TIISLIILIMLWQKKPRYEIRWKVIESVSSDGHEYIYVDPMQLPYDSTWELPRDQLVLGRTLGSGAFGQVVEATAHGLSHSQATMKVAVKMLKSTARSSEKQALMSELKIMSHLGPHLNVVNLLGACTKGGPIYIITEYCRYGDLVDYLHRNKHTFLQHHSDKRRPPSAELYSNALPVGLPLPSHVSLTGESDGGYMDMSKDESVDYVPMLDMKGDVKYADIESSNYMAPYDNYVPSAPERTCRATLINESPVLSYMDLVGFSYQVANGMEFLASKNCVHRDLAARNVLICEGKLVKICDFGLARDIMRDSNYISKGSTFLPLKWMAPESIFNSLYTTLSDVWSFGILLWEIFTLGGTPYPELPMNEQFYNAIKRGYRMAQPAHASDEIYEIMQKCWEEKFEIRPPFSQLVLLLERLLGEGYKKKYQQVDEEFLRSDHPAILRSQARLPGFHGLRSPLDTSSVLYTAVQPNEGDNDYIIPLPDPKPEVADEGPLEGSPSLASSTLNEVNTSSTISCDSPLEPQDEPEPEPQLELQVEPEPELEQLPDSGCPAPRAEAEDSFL

| inhibition at 10 µM (PDGF-R kinase activity) | IC50 [1] | IC50 [2] | Compound | Percent Inhibition @ 10 uM (PDGF-R kinase activity) |
| --- | --- | --- | --- | --- |
| 84% |  | 4.68 µM | COc1cc2c(cc1OC)-c1c(c(Nc3cccc(F)c3)nn1C)C2 [Compound 609] |  |
| 95% | 0.153 µM |  | COc1cc2c(cc1OC)-c1n[nH]c(NCc3cc(-c4ccccc4)on3)c1C2 [Compound 455, (6,7-Dimethoxy-2,4-dihydro-indeno[1,2-c]pyrazol-3-yl)-(5-phenyl-isoxazol-3-ylmethyl)-amine] |  |
| 61% | 0.0967 µM |  | COc1cc2c(cc1OC)-c1n[nH]c(NCc3ccccc3F)c1C2 [Compound 325, (6,7-Dimethoxy-2,4-dihydro-indeno[1,2-c]pyrazol-3-yl)-(2-fluoro-benzyl)-amine] |  |
| 95% | 0.229 µM |  | COc1cc2c(cc1OC)-c1n[nH]c(Nc3c(F)cc(F)cc3F)c1C2 [Compound 477, (6,7-Dimethoxy-2,4-dihydro-indeno[1,2-c]pyrazol-3-yl)-(2,4,6-trifluoro-phenyl)-amine] |  |
| 80% | 0.0982 µM |  | COCCCOc1ccc2c(c1)Cc1c-2n[nH]c1Nc1cccc(OC)c1 [Compound 139, (3-Methoxy-phenyl)-[6-(3-methoxy-propoxy)-2,4-dihydro-indeno[1,2-c]pyrazol-3-yl]-amine] |  |
| 97% | 0.00814 µM |  | CCOc1cc2c(cc1OCCCO)-c1n[nH]c(Nc3cccc(Cl)c3)c1C2 [Compound 367, 3-[3-(3-Chloro-phenylamino)-6-ethoxy-2,4-dihydro-indeno[1,2-c]pyrazol-7-yloxy]-propan-1-ol] |  |
| 65% | 0.23 µM |  | COc1cc2c(cc1OC)-c1n[nH]c(Nc3ccc(Cl)c(Cl)c3)c1C2 [Compound 18, (3,4-Dichloro-phenyl)-(6,7-dimethoxy-2,4-dihydro-indeno[1,2-c]pyrazol-3-yl)-amine] |  |
| 96.5% | 0.0692 µM |  | CCOc1cc2c(cc1OCC)-c1n[nH]c(NCc3ccccc3F)c1C2 [Compound 293, (6,7-Diethoxy-2,4-dihydro-indeno[1,2-c]pyrazol-3-yl)-(2-fluoro-benzyl)-amine] |  |
| 100% | 0.0822 µM |  | CCC1c2cc(OC)c(OC)cc2-c2n[nH]c(Nc3cccc(F)c3)c21 (stereo not shown) [Compound 421, (4-Ethyl-6,7-dimethoxy-2,4-dihydro-indeno[1,2-c]pyrazol-3-yl)-(3-fluoro-phenyl)-amine] |  |
| 57% | 6.99 µM |  | COc1cc2c(cc1OC)-c1n[nH]c(Nc3cc(Cl)ccc3Cl)c1C2 [Compound 34, (2,5-Dichloro-phenyl)-(6,7-dimethoxy-2,4-dihydro-indeno[1,2-c]pyrazol-3-yl)-amine] |  |
|  |  | 3.89 µM | CCOc1cccc(Nc2[nH]nc3c2C(CC)c2cc(OC)c(OC)cc2-3)c1 (single isomer, unassigned) [Compound 571, (3-Ethoxy-phenyl)-(4-ethyl-6,7-dimethoxy-2,4-dihydro-indeno[1,2-c]pyrazol-3-yl)-amine] | 66% |
| 85.5% | 0.108 µM |  | COc1cc2c(cc1OC)-c1c(c(Nc3cccc(F)c3)nn1COC(=O)C(C)(C)C)C2 [Compound 409, 2,2-Dimethyl-propionic acid 3-(3-fluoro-phenylamino)-6,7-dimethoxy-4H-indeno[1,2-c]pyrazol-1-ylm ethyl ester] |  |
| 77% | 0.617 µM |  | COc1cc2c(cc1OC)-c1n[nH]c(NC3CCCCC3)c1C2 [Compound 67, Cyclohexyl-(6,7-dimethoxy-2,4-dihydro-indeno[1,2-c]pyrazol-3-yl)-amine] |  |
| 54% |  |  | COc1cc2c(cc1OC)-c1n[nH]c(N3CCc4ccccc43)c1C2 [Compound 566, 3-(2,3-Dihydro-indol-1-yl)-6,7-dimethoxy-2,4-dihydro-indeno[1,2-c]pyrazole] |  |
| 98.5% | 0.132 µM |  | COc1ccc2c(c1)-c1n[nH]c(Nc3ccc(C(F)(F)F)cc3)c1C2 [Compound 178, (7-Methoxy-2,4-dihydro-indeno[1,2-c]pyrazol-3-yl)-(4-trifluoromethyl-phenyl)-amine] |  |
| 48.5% | 13.9 µM |  | COc1ccc(Nc2[nH]nc3c2Cc2c(OC)cccc2-3)cc1 [Compound 145, (5-Methoxy-2,4-dihydro-indeno[1,2-c]pyrazol-3-yl)-(4-methoxy-phenyl)-amine] |  |

Further lines, the compound ahead of its results:

| Compound | inhibition at 10 µM (PDGF-R kinase activity) | IC50 [1] | IC50 [2] | Percent Inhibition @ 10 uM (PDGF-R kinase activity) |
| --- | --- | --- | --- | --- |
| COc1cc2c(cc1OC)-c1c(c(Nc3cccc(F)c3)nn1C(=O)Oc1ccc(Cl)cc1)C2 [Compound 501, 3-(3-Fluoro-phenylamino)-6,7-dimethoxy-4H-indeno[1,2-c]pyrazole-1-carboxylic acid 4-chloro-phenyl ester] | 90% | 0.096 µM |  |  |
| Fc1ccc2c(c1)Cc1c-2n[nH]c1NCc1ccc(F)c(F)c1 [Compound 308, (3,4-Difluoro-benzyl)-(6-fluoro-2,4-dihydro-indeno[1,2-c]pyrazol-3-yl)-amine] | 14% | 0.511 µM |  |  |
| CCC1c2cc(OC)c(OC)cc2-c2nn(C(=O)COCc3ccccc3)c(Nc3cccc(Br)c3)c21 (stereo not shown) [Compound 518, 2-Benzyloxy-1-[3-(3-bromo-phenylamino)-4-ethyl-6,7-dimethoxy-4H-indeno[1,2-c]pyrazol-2-yl]-ethanone] | 92.5% | 0.184 µM |  |  |
| COc1cccc2c1Cc1c-2n[nH]c1Nc1cccc(OC(F)(F)F)c1 [Compound 149, (5-Methoxy-2,4-dihydro-indeno[1,2-c]pyrazol-3-yl)-(3-trifluoromethoxy-phenyl)-amine] | 27.5% | 8.37 µM |  |  |
| CCOC(=O)CNC(=O)n1nc2c(c1Nc1cccc(F)c1)Cc1cc(OC)c(OC)cc1-2 [Compound 407, {[3-(3-Fluoro-phenylamino)-6,7-dimethoxy-4H-indeno[1,2-c]pyrazole-2-carbonyl]-amino}-acetic acid ethyl ester] | 39% | 9.88 µM |  |  |
| COC(=O)C(CC(C)C)NC(=O)n1nc2c(c1Nc1cccc(F)c1)Cc1cc(OC)c(OC)cc1-2 (stereo not shown) [Compound 412, 2-{[3-(3-Fluoro-phenylamino)-6,7-dimethoxy-4H-indeno[1,2-c]pyrazole-2-carbonyl]-amino}-4-methyl-pentanoic acid methyl ester] | 44% | 12.7 µM |  |  |
| COc1cc2c(c3nc(C)oc13)Cc1c(NCc3ccccc3F)n[nH]c1-2 [Compound 574, (2-Fluoro-benzyl)-(4-methoxy-2-methyl-6,9-dihydro-3-oxa-1,6,7-triaza-cyclopenta[b]-as-indacen-8-yl)-amine] | 99% |  | 0.163 µM |  |
| Cc1ccc(CNc2[nH]nc3c2Cc2cc(F)ccc2-3)cc1Cl [Compound 306, (3-Chloro-4-methyl-benzyl)-(6-fluoro-2,4-dihydroindeno[1,2-c]pyrazol-3-yl)-amine] | 47.5% | 8.59 µM |  |  |
| COc1cc2c(cc1OC)-c1nn(C(=O)CC(=O)N3CCCC3)c(Nc3cccc(F)c3)c1C2 [Compound 535, 1-[3-(3-Fluoro-phenylamino)-6,7-dimethoxy-4H-indeno[1,2-c]pyrazol-2-yl]-3-pyrrolidin-1-yl-propane-1,3-dione] | 105% | 0.0322 µM |  |  |
| CN(C)CCCOc1cccc2c1Cc1c-2n[nH]c1Nc1ccc(F)cc1 [Compound 73, [5-(3-Dimethylamino-propoxy)-2,4-dihydro-indeno[1,2-c]pyrazol-3-yl]-(4-fluoro-phenyl)-amine] | ~30% | > 50 µM |  |  |
| COc1cc2c(cc1OC)-c1c(c(Nc3cccc(F)c3)nn1C(=O)NCCN)C2 [Compound 516, 3-(3-Fluoro-phenylamino)-6,7-dimethoxy-4H-indeno[1,2-c]pyrazole-1-carboxylic acid (2-amino-ethyl)-amide] | 68.5% | 10 µM |  |  |
| CC1c2ccccc2-c2n[nH]c(Nc3ccc(OC(F)(F)F)cc3)c21 (stereo not shown) [Compound 113, (4-Methyl-2,4-dihydro-indeno[1,2-c]pyrazol-3-yl)-(4-trifluoromethoxy-phenyl)-amine] | 60% | 2.45 µM |  |  |
| CC1c2ccccc2-c2n[nH]c(Nc3cccnc3)c21 (stereo not shown) [Compound 109, (4-Methyl-2,4-dihydro-indeno[1,2-c]pyrazol-3-yl)-pyridin-3-yl-amine] | 83% | 0.537 µM |  |  |
| CCOc1cc2c(cc1OCC)C(C)c1c-2n[nH]c1Nc1cccc(F)c1 (stereo not shown) [Compound 344, (6,7-Diethoxy-4-methyl-2,4-dihydro-indeno[1,2-c]pyrazol-3-yl)-(3-fluoro-phenyl)-amine] | 100% | 0.0647 µM |  |  |
| COc1ccc(Nc2[nH]nc3c2C(C)c2ccccc2-3)cc1 (stereo not shown) [Compound 107, (4-Methoxy-phenyl)-(4-methyl-2,4-dihydro-indeno[1,2-c]pyrazol-3-yl)-amine] | 56% | 1.27 µM |  |  |
| CCC1c2cc(OC)c(OC)cc2-c2n[nH]c(Nc3cccc(Br)c3)c21 (single isomer, unassigned) [Compound 570, *S-(3-Bromo-phenyl)-(6,7-dimethoxy-4-ethyl-2,4-dihydro-indeno[1,2-c]pyrazol-3-yl)-amine] |  |  | 2.05 µM | 77.5% |
| CC(C)Oc1cc2c(cc1OC(C)C)C(C)c1c-2n[nH]c1Nc1ccc(F)cc1 (stereo not shown) [Compound 356, (6,7-Diisopropoxy-4-methyl-2,4-dihydro-indeno[1,2-c]pyrazol-3-yl)-(4-fluoro-phenyl)-amine] | 70% | 1.95 µM |  |  |
| COC(=O)c1cccc(Nc2[nH]nc3c2Cc2c(OCCCN(C)C)cccc2-3)c1 [Compound 77, 3-[5-(3-Dimethylamino-propoxy)-2,4-dihydro-indeno[1,2-c]pyrazol-3-ylamino]-benzoic acid methyl ester] | 108% | 0.217 µM |  |  |
